Holding throughout (type): in vitro ADME
Data set [1] in a line: Glucuronidation by pooled human liver microsomes (HLM), UDPGA-supplemented. To be noted: probe substrate glucuronidation. The protocol:
(§1) The reaction was terminated by adding ice-cold acetonitrile. […] All experiments were performed in triplicate.
(§2) The parameter were as follow. V is the formation rate of the product. Vmax is the maximal velocity. […] Ksi is the substrate inhibition constant. […] (1) V=Vmax ×[S]/Km+[S] (2) V=Vmax ×[S]/Km + [S](1+[S]/Ksi)
A general note: Microsomes from liver hold many membrane-bound enzymes, among them those of drug oxidation.

In another data set the target is T1, expressed human UGT1A3 (Homo sapiens, UniProt P35503).
T1 construct: purchased Corning Biosciences
T1 sequence (P35503 29-534): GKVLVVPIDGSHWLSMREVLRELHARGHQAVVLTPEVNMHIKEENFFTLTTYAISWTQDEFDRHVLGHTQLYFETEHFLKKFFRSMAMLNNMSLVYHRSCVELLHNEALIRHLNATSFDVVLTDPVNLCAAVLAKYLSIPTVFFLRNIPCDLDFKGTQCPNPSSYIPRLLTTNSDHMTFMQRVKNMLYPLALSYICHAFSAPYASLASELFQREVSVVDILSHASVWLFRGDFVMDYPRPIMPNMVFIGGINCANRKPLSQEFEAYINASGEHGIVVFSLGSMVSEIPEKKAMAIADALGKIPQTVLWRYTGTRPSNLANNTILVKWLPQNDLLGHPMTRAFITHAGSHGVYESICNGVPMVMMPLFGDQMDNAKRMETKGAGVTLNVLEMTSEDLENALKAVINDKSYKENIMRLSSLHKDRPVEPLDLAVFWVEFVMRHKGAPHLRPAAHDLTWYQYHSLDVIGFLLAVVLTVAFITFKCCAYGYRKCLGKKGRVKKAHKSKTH
Put plainly: Glucuronidation by expressed UGT1A3. The conditions noted are these: relative activity factor for UGT1A3 = CLint(probe, pHLM)/CLint(probe, Supersome). Here is the method: as §1
(§3) A series of working solutions of wushanicaritin were determined by the Acquity™ UPLC I-Class system equipped with a BEH C18 column (2.1 mm × 50 mm, 1.7 µm, Waters, Ireland, Part No. 186002350). The gradient elution program was the same as the UPLC condition of the structural identification of wushanicaritin glucuronides above. The detection wavelength was set at 270 nm, and the injection volume was 8 µL.
as §2
(§4) The contribution of individual expressed UGT enzymes to wushanicaritin glucuronidation in HLM was evaluated by the relative activity factor (RAF) approach as described in previous studies. The relative activity factor was defined as the activity ratio of HLM to an expressed UGT enzyme (Supersome) toward a probe substrate for this enzyme using Equation (3). The relative amount of wushanicaritin glucuronidation in HLM attributed to an expressed UGT enzyme was estimated by multiplying the glucuronidation activity (i.e., the intrinsic clearance) derived with this enzyme by the corresponding RAF. […] The contributions of individual UGT enzyme were calculated according to Equation (4). […]

A further data set concerns the target T2, UGT1A3 (Homo sapiens, UniProt P35503).
T2 construct: purchased Corning Biosciences
T2 sequence (P35503 29-534): T1 sequence (P35503 29-534)
Nature of the data set: Glucuronidation by expressed UGT1A3. The conditions noted are these: human, expressed UGT1A3 (Supersome); probe substrate glucuronidation; UGT1A3. Here is the method: as §1, §3, §2, §4

The source of these data is paper PMC5618632, “In Vitro Glucuronidation of Wushanicaritin by Liver Microsomes, Intestine Microsomes and Expressed Human UDP-Glucuronosyltransferase Enzymes” (International Journal of Molecular Sciences, 2017).

Usually microsomal CLint stands for a measure of how fast metabolising enzymes remove a compound, apart from limits set by blood flow. In general, Km refers to the substrate concentration at which the rate is half of its maximum. The Vmax is the top rate of the reaction or transport when substrate is in excess.

For the compound `C[C@H](CCC(=O)O)[C@H]1CC[C@H]2[C@@H]3[C@H](O)C[C@@H]4C[C@H](O)CC[C@]4(C)[C@H]3CC[C@]12C` [CDCA, chenodeoxycholic acid, reference compound], the microsomal CLint in data set [1] (human, pooled liver microsomes) amounted to 8.86 ± 0.74 µL/min/mg; at UGT1A3, 18.5 ± 1.28 µL/min/mg. The Km in data set [1] (human, pooled liver microsomes, read-out: Km) was found to be 14.3 ± 1.16 µM. The Vmax in data set [1] is given as 0.13 ± 0.003 nmol/min/mg. For the same compound, the RAF at expressed human UGT1A3 amounted to 0.48.
